Data: patent publication US8686115B2, “Compositions and methods for quantitatively monitoring lipids” (The Board of Trustees of the University of Illinois, priority 2009, dated 2014)
Read-outs that look alike come from different tables or passages of the source.

How the values were obtained:
[1] = target: T1, PLCδ-PH (PLCδ PH domain) (Homo sapiens, UniProt P51178); assay: SPR equilibrium binding of PLCδ-PH to phosphoinositide-containing LUVs
T1 sequence (P51178 21-130 limits assumed): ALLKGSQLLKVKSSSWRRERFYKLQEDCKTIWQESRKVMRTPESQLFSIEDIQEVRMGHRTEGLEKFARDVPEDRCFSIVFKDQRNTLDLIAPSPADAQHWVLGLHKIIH
Method: With respect to FIG. […] The proteins were incubated with a given concentration of IP3 for 5 minutes before injecting into the SPR instrument. Kinetic SPR measurements were performed in 20 mM Tris-HCL, pH 7.4, containing 0.16 KCl. […] A lower concentration of DAN-eENTH was used than that of PLCδ PH because the former has much higher affinity that the latter.
LUVs were prepared by extrusion using a 100 nm-pore membrane. GUVs were prepared by electroformation. The lipid mixture were prepared in chloroform/methanol (3:1) at a total concentration of 0.4 mg/ml, then the lipid solution was spread onto the indium-tin oxide electrode surface and the lipid was dried under vacuum to form a uniform lipid film. Vesicles were grown in a sucrose solution (350 mM) while an electric field (3V, 20 Hz frequency) was applied for 5 hour at room temperature. After 1 to […] of sucrose-loaded GUV solution was added into a well glued onto a coverslip that was placed on the microscope stage. The well contained […] of 20 mM Tris-HCl buffer, pH 7.4, with 0.16 M KCl solution. The diameter of GUVs ranged from 5 to 30 μm.

[2] = target: T2, epsin 1 ENTH domain (SEQ ID NO: 1) variant C96A (Homo sapiens, UniProt Q9Y6I3, C96A); assay: SPR equilibrium binding of epsin1 ENTH C96A to phosphoinositide-containing LUVs
T2 construct: The Epsin1 ENTH domain (1-158 amino acids) was subcloned; GST (C, cleaved yes); made in house; host or cells: E. coli BL21 RIL codon plus
T2 sequence (Q9Y6I3 1-158 C96A): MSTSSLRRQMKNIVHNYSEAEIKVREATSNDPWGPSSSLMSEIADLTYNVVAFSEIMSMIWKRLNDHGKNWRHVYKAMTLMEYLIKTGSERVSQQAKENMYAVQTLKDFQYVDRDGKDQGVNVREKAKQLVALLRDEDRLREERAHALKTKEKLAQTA
Description: (§1) The ENTH domain was engineered to introduce a single labeling site (M10C) on the membrane binding surface while removing an endogenous Cys (C96A). We also performed the S4W mutation to suppress its residual affinity for another lipid, phosphatidylinositol-3,4,5-trisphosphate (PtdIns(3,4,5)P3) (PtdIns(4,5)P2/PtdIns(3,4,5)P3=4 for wild type and >10 for the mutant) and to enhance the overall affinity for PtdIns(4,5)P2-containing membranes (ca. 4-fold) (Table 1).
(§2) With respect to FIG. 1, an L1 sensor chip was coated with POPC/POPS/PtdIns(4,5)P2 (77:20:3) LUVs. The proteins were incubated with a given concentration of IP3 for 5 minutes before injecting into the SPR instrument. Kinetic SPR measurements were performed in 20 mM Tris-HCL, pH 7.4, containing 0.16 KCl. […] A lower concentration of DAN-eENTH was used than that of PLCδ PH because the former has much higher affinity that the latter.
(§3) All mutations (S4W, M10C, and C96A) were performed by polymerase chain reaction mutagenesis and verified by DNA sequencing. eENTH may comprise the following sequence:
E. coli BL21 RIL codon plus (Stratagene) cells were used for protein expression. Cells were grown in Luria broth media containing 100 μg/ml of ampicillin at 37° C. 0.1 mM of Isopropyl β-D-1-thiogalactopyranoside was added to induce over-expression of recombinant proteins when the OD600 reached 0.5-0.8 and cells were grown for additional 6 to 10 hours at 25° C. Cells were harvested by centrifugation and cell pellets were resuspended in 50 mM Tris-HCl buffer (pH 7.4) containing 160 mM KCl, 1 mM phenylmethanesulphonylfluoride, and 5 mM of dithiothreitol (DTT). Cells were lysed by sonication and the lysate was collected by centrifugation at 4° C. […] Purity and the concentration of the recombinant proteins were determined by sodium dodecylsulfate-polyacrylamide gel electrophoresis and bicinchoninic acid assay, respectively. The DAN labeling yield of eENTH, which was calculated as the molar ratio of DAN (determined spectrophotometrically at 391 nm using its extinction coefficient of 20,000 cm^−1 M^−1) to protein, was typically 60-70%. […]

[3] = target: T3, epsin 1 ENTH domain, wild type, SEQ ID NO: 1 (Homo sapiens, UniProt Q9Y6I3); assay: SPR equilibrium binding of epsin1 ENTH domain (wild type) to phosphoinositide-containing LUVs; details: SPR
T3 construct: The Epsin1 ENTH domain (1-158 amino acids) was subcloned; GST (C, cleaved yes); made in house; host or cells: E. coli BL21 RIL codon plus
T3 sequence (Q9Y6I3 1-158): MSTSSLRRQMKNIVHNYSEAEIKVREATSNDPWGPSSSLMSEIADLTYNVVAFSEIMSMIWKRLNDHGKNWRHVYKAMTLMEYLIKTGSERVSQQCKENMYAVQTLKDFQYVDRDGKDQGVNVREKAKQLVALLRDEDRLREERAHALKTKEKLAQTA
Description: as §1, §2
The Epsin1 ENTH domain (1-158 amino acids) was subcloned into the pGEX4T-1 vector and expressed as a […] glutathione S-transferase (GST)-tagged protein. The ENTH domain amino acid sequence is as follows:
E. coli BL21 RIL codon plus (Stratagene) cells were used for protein expression. Cells were grown in Luria broth media containing 100 μg/ml of ampicillin at 37° C. 0.1 mM of Isopropyl β-D-1-thiogalactopyranoside was added to induce over-expression of recombinant proteins when the OD600 reached 0.5-0.8 and cells were grown for additional 6 to 10 hours at 25° C. Cells were harvested by centrifugation and cell pellets were resuspended in 50 mM Tris-HCl buffer (pH 7.4) containing 160 mM KCl, 1 mM phenylmethanesulphonylfluoride, and 5 mM of dithiothreitol (DTT). Cells were lysed by sonication and the lysate was collected by centrifugation at 4° C. The GST-affinity resin (GenScript) for GST-tagged proteins or nickel-nitrilotriacetic acid resin (Qiagen, Valencia, Calif.) for His6-tagged proteins was added into the cell lysate and the mixture was gently shaken for 30 minutes at 4° C. The mixture was applied to a column and the column was washed once with 50 mM Tris-HCl buffer (pH 7.4) containing 160 mM KCl and 5 mM of DTT to reduce thiol group, and washed several times with the same buffer without DTT to remove DTT. For DAN labeling, 100 μg of acrylodan was added to the column at this stage and incubated 16 hours at 4° C. The excess acrylodan was removed by washing the column with the buffer several times. […] Purity and the concentration of the recombinant proteins were determined by sodium dodecylsulfate-polyacrylamide gel electrophoresis and bicinchoninic acid assay, respectively. The DAN labeling yield of eENTH, which was calculated as the molar ratio of DAN (determined spectrophotometrically at 391 nm using its extinction coefficient of 20,000 cm^−1 M^−1) to protein, was typically 60-70%. […]

[4] = target: T4, DAN-eENTH: epsin 1 ENTH domain variant M10C/C96A/S4W, SEQ ID NO: 2, labeled with DAN at C10 (Homo sapiens, UniProt Q9Y6I3, C96A/M10C/S4W); assay: SPR equilibrium binding of DAN-eENTH to phosphoinositide-containing LUVs; details: SPR
T4 construct: The Epsin1 ENTH domain (1-158 amino acids) was subcloned; GST (C, cleaved yes); made in house; host or cells: E. coli BL21 RIL codon plus
T4 sequence (Q9Y6I3 1-158 S4W/M10C/C96A): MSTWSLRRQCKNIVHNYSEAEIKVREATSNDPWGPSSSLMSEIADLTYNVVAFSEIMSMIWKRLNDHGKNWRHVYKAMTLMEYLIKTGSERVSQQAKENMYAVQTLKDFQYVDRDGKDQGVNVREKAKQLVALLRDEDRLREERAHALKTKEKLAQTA
Description: Provided herein is an ENTH domain of epsin1, which is linked to 2-dimethylamino-6-acyl-naphthalene (DAN). The ENTH domain contains 3 mutations, which are substitutions: M10C, C96A, and S4W. See SEQ ID NO:2. This DAN-eENTH (M10C, C96A, S4W) is an exceptional, high-affinity phosphatidylinositol-4,5-bisphosphate (PtdIns(4,5)P2)-binding protein.
as §1, §2, §3
E. coli BL21 RIL codon plus (Stratagene) cells were used for protein expression. Cells were grown in Luria broth media containing 100 μg/ml of ampicillin at 37° C. 0.1 mM of Isopropyl β-D-1-thiogalactopyranoside was added to induce over-expression of recombinant proteins when the OD600 reached 0.5-0.8 and cells were grown for additional 6 to 10 hours at 25° C. Cells were harvested by centrifugation and cell pellets were resuspended in 50 mM Tris-HCl buffer (pH 7.4) containing 160 mM KCl, 1 mM phenylmethanesulphonylfluoride, and 5 mM of dithiothreitol (DTT). Cells were lysed by sonication and the lysate was collected by centrifugation at 4° C. The GST-affinity resin (GenScript) for GST-tagged proteins or nickel-nitrilotriacetic acid resin (Qiagen, Valencia, Calif.) for His6-tagged proteins was added into the cell lysate and the mixture was gently shaken for 30 minutes at 4° C. The mixture was applied to a column and the column was washed once with 50 mM Tris-HCl buffer (pH 7.4) containing 160 mM KCl and 5 mM of DTT to reduce thiol group, and washed several times with the same buffer without DTT to remove DTT. For DAN labeling, 100 μg of acrylodan was added to the column at this stage and incubated 16 hours at 4° C. The excess acrylodan was removed by washing the column with the buffer several times. Thrombin (Invitrogen) was added to column to remove the GST tag and the mixture was incubated at 4° C. for 10 hours. The labeled protein was eluted from the column by and the collected fractions were applied to ion exchange column. Purity and the concentration of the recombinant proteins were determined by sodium dodecylsulfate-polyacrylamide gel electrophoresis and bicinchoninic acid assay, respectively. The DAN labeling yield of eENTH, which was calculated as the molar ratio of DAN (determined spectrophotometrically at 391 nm using its extinction coefficient of 20,000 cm^−1 M^−1) to protein, was typically 60-70%.
LUVs were prepared by extrusion using a 100 nm-pore membrane. GUVs were prepared by electroformation. […]

[5] = POPC/POPS/PtdIns(3,4)P2 (77:20:3) LUVs, read-out: Kd for PtdIns(3,4)P2
[6] = POPC/POPS/PtdIns(3,4,5)P3 (77:20:3) LUVs, read-out: Kd for PtdIns(3,4,5)P3

Kd [1, 5]	Kd [2, 5]	Kd [3, 5]	Kd [4, 5]	Kd [1, 6]	Kd [2, 6]	Kd [3, 6]	Kd [4, 6]	Structure (SMILES)
0.35 µM	0.19 µM	0.18 µM	0.05 µM	–	–	–	–	CCCCCCCCCCCCCCCC(=O)OC[C@H](COP(=O)(O)O[C@H]1[C@H](O)[C@@H](O)[C@H](OP(=O)(O)O)[C@@H](OP(=O)(O)O)[C@H]1O)OC(=O)CCCCCCCCCCCCCCC [PtdIns(3,4)P2]
–	–	–	–	0.48 µM	0.2 µM	0.21 µM	0.044 µM	CCCCCCCCCCCCCCCC(=O)OC[C@H](COP(=O)(O)O[C@H]1[C@H](O)[C@@H](OP(=O)(O)O)[C@H](OP(=O)(O)O)[C@@H](OP(=O)(O)O)[C@H]1O)OC(=O)CCCCCCCCCCCCCCC [PtdIns(3,4,5)P3, phosphatidylinositol-3,4,5-trisphosphate]
